The record followed here is patent US20060148858A1, “1, 2-Azole derivatives with hypoglycemic and hypolipidemic activity” (priority 2002, published 2006).

Series [1] has as its target T1, PPARγ-RXRα heterodimer (Homo sapiens, UniProt P37231).
T1 construct: expressed in transfected cells; host or cells: CHO-K1
T1 sequence (P37231 1-477 isoform P37231-2): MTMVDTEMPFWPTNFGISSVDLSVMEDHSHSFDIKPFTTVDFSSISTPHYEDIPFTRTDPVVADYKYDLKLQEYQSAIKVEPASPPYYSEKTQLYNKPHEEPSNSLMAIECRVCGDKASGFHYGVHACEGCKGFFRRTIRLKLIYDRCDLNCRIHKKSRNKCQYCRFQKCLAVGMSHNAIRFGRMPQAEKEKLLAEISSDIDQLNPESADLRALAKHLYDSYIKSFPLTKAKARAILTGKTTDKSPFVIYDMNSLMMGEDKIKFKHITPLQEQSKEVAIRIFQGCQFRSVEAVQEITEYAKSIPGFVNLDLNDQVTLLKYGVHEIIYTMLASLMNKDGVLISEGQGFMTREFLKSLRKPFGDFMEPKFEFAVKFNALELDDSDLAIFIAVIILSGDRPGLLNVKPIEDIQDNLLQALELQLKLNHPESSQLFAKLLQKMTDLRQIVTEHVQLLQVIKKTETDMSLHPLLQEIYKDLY
T1 sequence (P19793 1-462 partner): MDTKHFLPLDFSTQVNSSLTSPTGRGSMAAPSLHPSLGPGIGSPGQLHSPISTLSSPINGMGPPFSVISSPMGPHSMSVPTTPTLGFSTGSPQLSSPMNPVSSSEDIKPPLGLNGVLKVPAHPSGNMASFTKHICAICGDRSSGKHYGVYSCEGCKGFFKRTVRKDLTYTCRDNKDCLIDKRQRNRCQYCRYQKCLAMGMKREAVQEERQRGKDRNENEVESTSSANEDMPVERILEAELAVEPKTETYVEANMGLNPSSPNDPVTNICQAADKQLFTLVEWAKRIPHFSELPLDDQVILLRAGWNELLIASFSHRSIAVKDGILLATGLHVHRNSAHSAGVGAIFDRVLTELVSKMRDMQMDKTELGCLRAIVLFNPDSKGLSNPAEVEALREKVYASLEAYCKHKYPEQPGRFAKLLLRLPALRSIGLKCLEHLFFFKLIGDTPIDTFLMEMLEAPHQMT
In words: PPARγ-RXRα heterodimer ligand activity, luciferase reporter in PPARγ:RXRα:4ERPP/CHO-K1 cells (Test Example 3). Type of series: cell-based. The following applies: 18-48 hours, concentration for 50% of the maximum fold induction. The method, then: A PPARγ: RXRα: 4ERPP/CHO-K1 cells obtained in Reference Example 8a described later were cultured in HAM F12 medium (produced by Life Technologies, Inc., USA) containing 10% Fetal bovine serum (produced by Life Technologies, Inc., USA) and then inoculated to a 96-well white plate (produced by Corning Costar Corporation, USA) at the density of 2×10^4 cells/well, and cultured in a CO2 gas incubator at 37° C. overnight.
After removing the medium from 96 well white plate, 80 μl of HAM F12 medium containing 0.1% fatty acid-free bovine serum albumin (BSA) and 20 μl of test compound were added, which was cultured in a CO2 gas incubator at 37° C. for 18-48 hours. After removing the medium, 40 μl of PIKKAGENE 7.5 (produced by Wako Pure Chemical Industries, Ltd.) diluted twice with HBSS (HANKS' BALANCED SALT SOLUTION)(produced by BIO WHITTAKER Inc., USA), was added. After stirring, the luciferase activity was determined using 1420 ARVO Multilabel Counter (produced by PerkinElmer Inc., USA).
A fold induction was calculated based on the luciferase activity of each test compound by taking the luciferase activity in the non-treatment group as 1. The values of the test compound concentration and the fold induction were analyzed using PRISM (produced by GraphPad Software Inc. USA) to calculate the EC50 values, the effective concentration of a test compound for 50% of the maximum fold induction.
After a CHO-K1 cell cultured in a 150 cm^2 cell culture flask (750 ml)(produced by Corning Costar Corporation, USA) containing HAM F12 medium (produced by Life Technologies, Inc., USA) supplemented with 10% Fetal Bovine Serum (produced by Life Technologies, Inc., USA) was scraped by treating with 0.5 g/L trypsin-0.2 g/L EDTA (ethylenediaminetetraacetic acid) (produced by Life Technologies, Inc., USA), the cell was washed with PBS (phosphate-buffered saline) (produced by Life Technologies, Inc., USA), centrifuged (1000 rpm, 5 minutes), and then suspended in PBS. Subsequently, a DNA was introduced into the cell under the condition shown below using GENE PULSER (produced by Bio-Rad Laboratories, USA).
Namely, to a cuvette having a 0.4 cm gap, added were 8×10^6 cells and 10 μg of plasmid pVgRXR2-hPPARγ obtained in Reference Example 7a and 10 μg of reporter plasmid pGL3-4ERPP-TK neo obtained in Reference Example 5a, which was subjected to electroporation at the voltage of 0.25 kV under the capacitance of 960 μF. Subsequently, the cell was transferred into a HAM F12 medium containing 10% Fetal Bovine Serum and cultured for 24 hours and then the cell was scraped again and centrifuged, and then suspended in HAM F12 medium containing 10% Fetal Bovine Serum supplemented with 500 μg/ml of GENETICIN (produced by Life Technologies, Inc., USA) and 250 μg/ml of ZEOCIN (produced by Invitrogen, USA). The obtained suspension was diluted to the density of 10^4 cells/ml and inoculated to a 96-well plate (produced by Corning Costar Corporation, USA), which was cultured in a CO2 gas incubator at 37° C., whereby obtaining a GENETICIN- and ZEOCIN-resistant transformant.
Subsequently, after the transformant cell line thus obtained was cultured in a 24-well plate (produced by Corning Costar Corporation, USA), selected was a cell line in which the luciferase was expressed and induced, i.e., PPARγ:RXRα:4ERPP/CHO-K1 cell by addition of 10 μM of pioglitazone hydrochloride.
(In a reporter assay the amount or activity of a reporter protein is the signal.)

Series [2] concerns the target T2, PPARδ-RXRα heterodimer (Homo sapiens, UniProt Q03181).
T2 construct: expressed in transfected cells; host or cells: COS-1
T2 sequence (Q03181 1-441): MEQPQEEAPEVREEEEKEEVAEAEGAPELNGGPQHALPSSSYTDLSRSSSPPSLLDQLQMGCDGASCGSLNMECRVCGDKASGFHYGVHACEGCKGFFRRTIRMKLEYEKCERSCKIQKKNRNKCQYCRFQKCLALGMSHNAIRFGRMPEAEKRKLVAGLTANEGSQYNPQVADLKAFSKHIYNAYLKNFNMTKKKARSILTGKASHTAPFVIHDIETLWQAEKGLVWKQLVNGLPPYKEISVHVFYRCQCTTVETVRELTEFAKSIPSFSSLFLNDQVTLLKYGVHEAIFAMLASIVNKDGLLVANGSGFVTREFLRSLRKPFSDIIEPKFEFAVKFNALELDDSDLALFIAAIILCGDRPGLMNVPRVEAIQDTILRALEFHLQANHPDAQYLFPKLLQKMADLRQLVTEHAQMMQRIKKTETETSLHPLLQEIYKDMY
T2 sequence (P19793 1-462 partner): T1 sequence (P19793 1-462 partner)
In words: PPARδ-RXRα heterodimer ligand activity, luciferase reporter in COS-1 transformant (Test Example 4). It is filed as cell-based. Conditions: COS-1 transformant (hPPARδ, hRXRα, reporter), 36-48 hours, concentration for 50% of the maximum fold induction. In short, it runs like this:
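COS-1 cells transiently co-transfected with human PPARδ, human RXRα, PPRE-luciferase reporter and pRL-tk, then exposed to compound 36-48 h at 37 °C in DMEM with 0.1% fatty acid-free BSA. Luciferase read as fold induction over untreated; EC50 at 50% of maximal fold induction.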

Usually EC50 stands for the concentration needed to bring the measured effect to its halfway point. As a reminder, the melting point is the temperature, or range, at which the solid turns liquid.

The compound `CCOc1cccc(CC(=O)O)c1OCCCc1cn(-c2ccc(C(F)(F)F)cn2)nc1C1CCCCC1` [Example 306, [2-(3-{3-cyclohexyl-1-[5-(trifluoromethyl)-2-pyridinyl]-1H-pyrazol-4-yl}propoxy)-3-ethoxyphenyl]acetic acid] returned a melting point of 156 to 157 °C. In series [1], this compound yielded an EC50 of 17 nM. On to `CCCCc1nn(-c2ccc(C(F)(F)F)cn2)cc1CCCOc1ccccc1CC(=O)O` [Example 198, [2-(3-{3-butyl-1-[5-(trifluoromethyl)-2-pyridyl]-1H-pyrazol-4-yl}propoxy)phenyl]acetic acid], for which the melting point is 106 to 107 °C. Also, it took 30 nM to reach a half-maximal effect in series [1] (EC50).

Regarding `COc1cccc(CC(=O)O)c1OCCCc1cn(-c2ccc(C#N)cn2)nc1C(C)C` [Example 271, (2-{3-[1-(5-cyano-2-pyridyl)-3-isopropyl-1H-pyrazol-4-yl]propoxy}-3-methoxyphenyl)acetic acid], the 50% effective concentration (EC50) in series [1] was 30 nM. Compound `COc1cccc(CC(=O)O)c1OCCCc1cn(-c2ccc(C(F)(F)F)cn2)nc1C1CCCCC1` [Example 307, [2-(3-{3-cyclohexyl-1-[5-(trifluoromethyl)-2-pyridinyl]-1H-pyrazol-4-yl}propoxy)-3-methoxyphenyl]acetic acid] gave a melting point of 140 to 141 °C. In series [1], this compound registered an EC50 of 23 nM. The like results for `COc1cccc(CC(=O)O)c1OCCCc1cn(-c2ccc(C(F)(F)F)cn2)nc1-c1ccccc1` [Example 196] were, in that order, 134 to 135 °C and 42 nM.

The compound `CCCCc1nn(-c2ccc(C(F)(F)F)cn2)cc1CCCOc1nn(CC)cc1CC(=O)O` [Example 334, [3-(3-{3-butyl-1-[5-(trifluoromethyl)-2-pyridinyl]-1H-pyrazol-4-yl}propoxy)-1-ethyl-1H-pyrazol-4-yl]acetic acid] showed a melting point of 109 to 110 °C. The compound also had a concentration giving a half-maximal response (EC50) in series [1] of 74 nM. The compound `COc1ccc(-n2cc(CCCOc3c(CC(=O)O)cccc3OC)c(C(C)C)n2)nn1` [Example 277, (3-methoxy-2-{3-[1-(6-methoxypyridazin-3-yl)-3-isopropyl-1H-pyrazol-4-yl]propoxy}phenyl)acetic acid] had a melting point of 124 to 125 °C. In series [1], this compound registered an EC50 of 36 nM. The like results for `COc1cccc(CC(=O)O)c1OCCCc1cn(-c2ccc([N+](=O)[O-])cn2)nc1C(C)C` [Example 270, (3-methoxy-2-{3-[3-isopropyl-1-(5-nitro-2-pyridyl)-1H-pyrazol-4-yl]propoxy}phenyl)acetic acid] were, in that order, 161 to 162 °C and 99 nM. The like results for `O=C(O)Cc1cccc(F)c1OCCCc1cn(-c2ccc(C(F)(F)F)cn2)nc1C1CCCCC1` [Example 210, [2-(3-{3-cyclohexyl-1-[5-(trifluoromethyl)-2-pyridyl]-1H-pyrazol-4-yl}propoxy)-3-fluorophenyl]acetic acid] were, in that order, 149 to 150 °C and 16 nM.

As to `CCCc1nn(-c2ccc(C(F)(F)F)cn2)cc1CCCCn1cc(CCC(=O)O)c(-c2ccc(F)cc2)n1` [Example 77, 3-[3-(4-fluorophenyl)-1-(4-{3-propyl-1-[5-(trifluoromethyl)-2-pyridinyl]-1H-pyrazol-4-yl}butyl)-1H-pyrazol-4-yl]propanoic acid], the melting point was 119 to 121 °C. The half-maximal effective concentration (EC50) in series [1] amounted to 21 nM. For `COc1cccc(CC(=O)O)c1OCCCc1cn(-c2ccc(F)cn2)nc1C(C)C` [Example 273, (2-{3-[1-(5-fluoro-2-pyridyl)-3-isopropyl-1H-pyrazol-4-yl]propoxy}-3-methoxyphenyl)acetic acid], in that order: 125 to 126 °C and 90 nM. Consider `CCCc1nn(-c2ccc(C(F)(F)F)cn2)cc1CCCOc1ccc(CC(=O)O)cc1` [Example 46, [4-(3-{3-propyl-1-[5-(trifluoromethyl)-2-pyridyl]-1H-pyrazol-4-yl}propoxy)phenyl]acetic acid], for which the melting point lay within 101 to 102 °C. This compound displayed a half-maximal effective concentration (EC50) in series [2] of 6.4 nM.
